Assay results: patent publication US12083082B2, “Methods for treating neurodegenerative disorders” (Alzheon, Inc., priority 2018, dated 2024)

What was measured:
in vivo = settings: rat, po
Description: ALZ-801 is a valine conjugate of tramiprosate that has been optimized for improved pharmacokinetic properties and gastrointestinal tolerability. Chronic toxicology studies required for the advancement of ALZ-801 to Phase 3 have been completed, including the nonclinical safety characterization of ALZ-801, and the safety bridge to the extensive nonclinical toxicology and safety data for tramiprosate. […] See Hey et al., Clinical Pharmacokinetics and Safety of ALZ-801, a Novel Prodrug of Tramiprosate in Development for the Treatment of Alzheimer's Disease. Clin Pharmacokinetics 2018; 315-333 and Kocis et al., Elucidating the Abeta42 Anti-Aggregation Mechanism of Action of Tramiprosate in Alzheimer's Disease: Integrating Molecular Analytical Methods. Pharmacokinetic and Clinical Data. CNS Drugs 2017; 31:495-509. […] Both ALZ-801 and tramiprosate have consistent elimination half-life in plasma across species following repeated oral doses of ALZ-801, indicating no potential for accumulation after chronic dosing. Following conversion of ALZ-801 to tramiprosate, tramiprosate is consistently metabolized in vivo into a single major metabolite, 3-sulfopropanoic acid (3-SPA), in humans, mice, rats, dogs and minipigs.

[1] = cited from earlier work
[2] = target: T1, recombinant human Aβ42 peptide (Homo sapiens, UniProt P05067); experiment: Ion mobility mass spectrometry (IMS MS) anti-Aβ42 oligomer activity / binding study; assay type: biochemical; parameters: key to Presence of Aβ42 Pentamer / Presence of Aβ42 Hexamer / Presence of Aβ42 Decamer / Presence of Aβ42 Dimer / Presence of Aβ42 Trimer / Presence of Aβ42 Tetramer: Y = yes, presence of oligomer species; N = no presence of oligomer species
T1 construct: recombinant human Aβ42 peptide; purchased BioLegend 843801
Description: The conditions used for mass spectrometry, using a Waters Synapt G2-S, were as follows: positive polarity in sensitivity mode, capillary=2.5 kV, nebulizer=2 mbar, source temperature=80° C., desolvation temperature=60° C., sample cone setting=35 V, source offset setting=60 V, and mass range=500 to 4000 m/z. These conditions were maintained throughout the study to ensure consistency of the data and to avoid influencing the detection of oligomers due to preferential ionization conditions.
Samples were directly infused into the mass spectrometer at a flow rate of 10 μL/min using a Protea PM-1000 Syringe Pump and Hamilton 1 mL Syringe. The data acquisition of the amyloid peptide was performed using a Waters Synapt G2-S quadrupole time of flight mass spectrometer (Q-TOF MS) with traveling wave ion mobility (Waters Corp., Milford, MA). The data were acquired using the systems sensitivity mode to allow for the detection of the less abundant oligomers. Samples were infused at room temperature. The IMS MS studies were conducted at Protea, Inc. (Morgantown, WV).
1 mg of recombinant human Aβ42 peptide from BioLegend (99% purity, cat #843801) was reconstituted in 200 μL of Fisher Optima LC/MS grade water (cat #W6-1) and vortexed vigorously for 2 minutes to solubilize the peptide creating a 5 mg/mL solution. Samples were then diluted to a final concentration of 22 pmol/μL prior to incubation. The sample mixtures were then incubated at room temperature for 0, 4 and 24 hours. After the acquisition of incubated samples was completed, the raw data were analyzed using the Waters MassLynx v2.4 suite with DriftScover v2.7 to visualize drift times for the peptide.
Aβ42 species characterization using IMS MS was performed by direct infusion at 22 pmol/μL in water. The peptide was prepared in water to maintain the native state conformation of the peptide and ion mobility data acquisition was performed to detect and characterize the conformational changes of the native state monomer and any oligomers that may have formed during the incubation.
The data acquisition for Aβ42 peptide was performed using a Waters Synapt G2-S quadrupole time of flight mass spectrometer (Q-TOF MS) with traveling wave ion mobility (Waters Corp., Milford, MA). The data were acquired using the systems sensitivity mode to allow for the detection of the less abundant oligomers. Samples were infused at room temperature as above.
1 mg of 3-SPA was reconstituted in 1 mL of Fisher Optima LC/MS grade water (cat #W6-1) and vortexed vigorously for 2 minutes until completely dissolved. The sample was then diluted to create […], and 22,000 pmol/μL solutions to perform a 100-fold, and 1,000-fold molar excess for the binding experiments with Aβ42 peptide.
1 mg of recombinant human Aβ42 peptide was reconstituted in 200 μL of Fisher Optima LC/MS grade water and vortexed vigorously to solubilize to a 5 mg/mL solution. Samples were then diluted to their final concentrations prior to incubation. The sample mixtures were incubated at room temperature for 0, 4 and 24 hours, followed by analysis as described above.
To address the high conformational flexibility of Aβ42 and to characterize its interaction with 3-SPA, we used ion mobility mass spectrometry (IMS), with a quadrupole time of flight mass spectrometer (Q-TOF MS) with traveling wave ion mobility. Resulting effect of modulation of Aβ conformational space is the prevention of oligomer formation. We have found not only concentration dependency but also time-dependency of this anti-Aβ42 oligomeric effect of 3-SPA as indicated in FIG. 3 and FIG. 4. 100- vs 1,000-fold molar excess of 3-SPA over Aβ42 results in a different sub-species profile of inhibition of Aβ42 oligomer formation. The activity is also compared with the same excess dependency of tramiprosate.

[3] = 100:1 excess ratio compound:protein
[4] = 1000:1 excess ratio compound:protein

T1 sequence (P05067 672-713 limits assumed): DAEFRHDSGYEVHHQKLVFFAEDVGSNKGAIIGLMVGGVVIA

Row | Structure (SMILES) | NOAEL at 1 month (in vivo) [mg/kg] | NOAEL at 6 month (in vivo) [mg/kg] | Tolerability (in words) (in vivo) | Safety profile (in words) ([1]; Phase 3 trials and safety extension, exposures of up to 2.5 years) | Effect on cognition (in words) ([1]; subgroup analysis of subjects with the ε4 allele of APOE (APOE4)) | Presence of Aβ42 Decamer [2, 3] | Presence of Aβ42 Dimer [2, 3] | Presence of Aβ42 Hexamer [2, 3] | Presence of Aβ42 Pentamer [2, 3] | Presence of Aβ42 Tetramer [2, 3] | Presence of Aβ42 Trimer [2, 3] | Presence of Aβ42 Decamer [2, 4] | Presence of Aβ42 Dimer [2, 4] | Presence of Aβ42 Hexamer [2, 4] | Presence of Aβ42 Pentamer [2, 4] | Presence of Aβ42 Tetramer [2, 4] | Presence of Aβ42 Trimer [2, 4] | Inhibition of formation of Aβ42 oligomers (in words) ([2]; 24 hours incubation, 1,000-fold excess)
1 | CC(C)[C@H](N)C(=O)NCCCS(=O)(=O)O [ALZ-801] | 2000 | 1500 | well tolerated |  |  |  |  |  |  |  |  |  |  |  |  |  |  | 
2 | NCCCS(=O)(=O)O [Tramiprosate, 3-amino-1-propanesulfonic acid, reference compound] |  |  |  | favorable safety profile | positive and clinically meaningful benefit on cognition | N | N | Y | Y | Y | Y | N | N | N | N | N | N | complete inhibition of formation of Aβ42 oligomers
